Assay results reported in publication PMC9952066 (2023).

Key:
[1] = test system: r-PQS4 (FEN1 rG4) (RNA, G4) AGGGGCCUGCGGGGACCUGGUGUGGGUGGAGUGGGGAC; test: UV-Vis absorption shift; conditions: 100 mM KCl, 12 mM NaCl; 50 mM Tris-HCl pH 7.4; pre-folded RNA 5 μM; TMPyP4 printed as 100 mM
[2] = test system: r-PQS4 (FEN1 rG4) (RNA, G4) AGGGGCCUGCGGGGACCUGGUGUGGGUGGAGUGGGGAC; test: CD titration (loss of 265 nm ellipticity); conditions: 100 mM KCl, 12 mM NaCl; 50 mM Tris-HCl pH 7.4; RNA 5 μM; TMPyP4 added before annealing (legend: pre-folded); disrupts G4
[3] = test system: FAM-labeled FEN1 rG4 (RNA, G4) AGGGGCCUGCGGGGACCUGGUGUGGGUGGAGUGGGGAC; test: native PAGE mobility (G4 unfolding); conditions: 100 mM KCl, 12 mM NaCl; 100 mM KCl in gel; 12% gel, 4 °C; RNA 5 μM; TMPyP4 unfolds rG4

Measured: binding

C[n+]1ccc(-c2c3nc(c(-c4cc[n+](C)cc4)c4ccc([nH]4)c(-c4cc[n+](C)cc4)c4nc(c(-c5cc[n+](C)cc5)c5ccc2[nH]5)C=C4)C=C3)cc1
yes: all assays above
